# Test system: Hepatotoxicity
# Test: Human drug-induced liver injury (DILI) modelling dataset from Ekins et al
# Settings: not given
row,Compound,Hepatotoxicity
1,CO[C@@]1(NC(=O)C(C(=O)[O-])c2ccc(O)cc2)C(=O)N2C(C(=O)[O-])=C(CSc3nnnn3C)CO[C@@H]21.[Na+].[Na+] (some centres undefined) [MOXALACTAM DISODIUM],DILI negative (test set)
2,"LACTOSE, ANHYDROUS",DILI negative (test set)
3,CCCNC(=O)NS(=O)(=O)c1ccc(Cl)cc1 [CHLORPROPAMIDE],DILI positive (test set)
4,CN(C)N=O [N-NITROSODIMETHYLAMINE],DILI positive (test set)
5,N=C(N)NCCC[C@H](N)C(=O)O [ARGININE],DILI negative (training set)
6,NC(=O)c1ncn([C@@H]2O[C@H](CO)[C@@H](O)[C@H]2O)n1 [RIBAVIRIN],DILI negative (training set)
7,CC1(C)S[C@@H]2[C@H](NC(=O)Cc3ccccc3)C(=O)N2[C@H]1C(=O)[O-].[Na+] [PENICILLIN G SODIUM],DILI positive (training set)
8,CCN(CC)CCCC(C)Nc1ccnc2cc(Cl)ccc12.O=P(O)(O)O.O=P(O)(O)O (centres undefined) [CHLOROQUINE PHOSPHATE],DILI negative (test set)
9,CCC1=C(C)CN(C(=O)NCCc2ccc(S(=O)(=O)NC(=O)N[C@H]3CC[C@H](C)CC3)cc2)C1=O [GLIMEPIRIDE],DILI negative (training set)
10,CN(C)[C@@H]1C(O)=C(C(N)=O)C(=O)[C@@]2(O)C(O)=C3C(=O)c4c(O)ccc(Cl)c4[C@@H](O)[C@H]3C[C@@H]12.Cl [DEMECLOCYCLINE HYDROCHLORIDE],DILI positive (training set)
11,CC(C)NNC(=O)c1ccncc1 [IPRONIAZID],DILI positive (test set)
12,CCCN(CCC)S(=O)(=O)c1ccc(C(=O)O)cc1 [PROBENECID],DILI negative (test set)
13,CC[N+](CC)(CC)CCOc1cccc(OCC[N+](CC)(CC)CC)c1OCC[N+](CC)(CC)CC.[I-].[I-].[I-] [GALLAMINE TRIETHIODIDE],DILI negative (training set)
14,NC(=O)c1cnccn1 [PYRAZINAMIDE],DILI positive (training set)
15,CN(C)CCCN1c2ccccc2CCc2ccc(Cl)cc21 [CLOMIPRAMINE],DILI positive (training set)
16,C[C@H](CCC(=O)O)[C@H]1CC[C@H]2[C@@H]3[C@@H](O)C[C@@H]4C[C@H](O)CC[C@]4(C)[C@H]3CC[C@]12C [URSODIOL],DILI negative (training set)
17,CCc1oc2ccccc2c1C(=O)c1cc(Br)c(O)c(Br)c1 [BENZBROMARONE],DILI positive (training set)
18,CC1=C(CC(=O)O)c2cc(F)ccc2/C1=C\c1ccc([S+](C)[O-])cc1 (centres undefined),DILI positive (training set)
19,Nc1ccn([C@@H]2CS[C@H](CO)O2)c(=O)n1 [LAMIVUDINE],DILI negative (training set)
20,CCCCC(=O)O [VALERIC ACID],DILI negative (test set)
21,CCN(CC)CCOc1ccc(C(=C(Cl)c2ccccc2)c2ccccc2)cc1 [CLOMIPHENE],DILI positive (training set)
22,CC(c1cc2ccccc2s1)N(O)C(N)=O (centres undefined) [ZILEUTON],DILI positive (training set)
23,CN(C)CCCN1c2ccccc2CCc2ccccc21.Cl [IMIPRAMINE HYDROCHLORIDE],DILI positive (training set)
24,C[C@H](CCC(=O)O)[C@H]1CC[C@H]2[C@@H]3CC[C@@H]4C[C@H](O)CC[C@]4(C)[C@H]3CC[C@]12C [LITHOCHOLIC ACID],DILI positive (training set)
25,CC(C)(Sc1cc(C(C)(C)C)c(O)c(C(C)(C)C)c1)Sc1cc(C(C)(C)C)c(O)c(C(C)(C)C)c1 [PROBUCOL],DILI negative (test set)
26,CC(C)COCC(CN(Cc1ccccc1)c1ccccc1)N1CCCC1.Cl.O (centres undefined) [BEPRIDIL HYDROCHLORIDE],DILI positive (training set)
27,c1ccc2c(c1)Nc1ccccc1S2 [PHENOTHIAZINE],DILI positive (test set)
28,CARBOPLATIN,DILI positive (test set)

# Same assay, conditions: Liver
row,Compound,Hepatotoxicity
1,ClC(Cl)Cl [CHLOROFORM],DILI positive (test set)
2,CC(C)c1cccc(C(C)C)c1O [PROPOFOL],DILI negative (test set)
3,CC(C)(C)NC(=O)[C@@H]1C[C@@H]2CCCC[C@@H]2CN1C[C@@H](O)[C@H](Cc1ccccc1)NC(=O)[C@H](CC(N)=O)NC(=O)c1ccc2ccccc2n1.CS(=O)(=O)O [SAQUINAVIR MESYLATE],DILI positive (test set)
4,CC(=O)OCC[N+](C)(C)C.[Cl-] [ACETYLCHOLINE CHLORIDE],DILI negative (training set)
5,CC(C)(C(=O)O)c1ccc(C(O)CCCN2CCC(C(O)(c3ccccc3)c3ccccc3)CC2)cc1 (centres undefined) [FEXOFENADINE],DILI negative (test set)
6,OCCO [ETHYLENE GLYCOL],DILI positive (test set)

# Reference: ChEMBL document CHEMBL1697723, “A predictive ligand-based Bayesian model for human drug-induced liver injury” (Drug Metab Dispos, 2010)
